Test results published in a melting point compilation (Tetko et al.; mined from patent text by program, amines drawn as free bases though some values may be those of a salt).

Molecule `CNC(=O)c1ccn2c(C(=O)N3CCNCC3)c(Cc3cccc(F)c3C)c(-c3ccccc3)c2c1` has a melting point of 205 °C. Molecule `CCCCCCCc1ccc(C(=O)Nc2ccc(C(=O)NN=C3C(=O)Nc4ccc(I)cc43)cc2)cc1` has a melting point of 306 °C. Work on `CCOc1cccc(CC(=O)O)c1OCCCc1cn(-c2ccc(Cl)cn2)nc1C(CC)CC` yielded a melting point of 92 to 93 °C. Molecule `CC1(C)CC(OC(=O)CCCCCCCCC(=O)OC2CC(C)(C)N(O)C(C)(C)C2)CC(C)(C)N1O` has a melting point of 101 °C. `COCOc1cc(OC)ccc1C(=O)O` gave a melting point of 96 to 97 °C. Molecule `ClCc1cccc2c1CCCC2` has a melting point of 51 to 52 °C. For `CCCCCCCCCCCCCCNC(=O)Oc1ccc([N+](=O)[O-])cc1OC(=O)NCCCCCCCCCCCCCC`, the melting point was 100 to 104 °C. `O=C(Nc1ccc2c(c1)OCO2)O[C@@H]1CN=C(c2ccccc2)O[C@H]1c1ccccc1` (racemic) gave a melting point of 138 °C. For `Cc1c(CN2CCN(c3cccc(C(F)(F)F)c3)CC2)cc(-c2ccc(Cl)cc2)n1-c1ccc(Cl)cc1`, the melting point was 165 to 167 °C. In the case of `Cc1cccc(Nc2nncc3ccccc23)c1`, the melting point is reported as 176 to 177 °C. Work on `NCCNc1n[nH]c2ncnc(Nc3cccc(Cl)c3)c12` yielded a melting point of 200 °C. With `N#CCc1cc(Cl)cc(Cl)c1Cl` the melting point was 60 to 62 °C. For `Cc1cnc2ccc(NC3=NCCN3)c(Br)c2n1`, the melting point was greater than 260 °C. With `O=C(N[C@H](Cc1ccccc1)C(=O)O)OCc1cc2cc(-c3ccccc3)ccc2o1` the melting point was 154 to 156 °C. Work on `Cc1nc(-n2ccc(N3CCNC3=O)cc2=O)sc1C(=O)NCc1ccccc1` yielded a melting point greater than 300 °C. Molecule `O=C(N[C@@H](Cc1ccccc1)C(=O)O)c1cnccn1` has a melting point of 166 to 169 °C. With `COc1ccc(C2C(=O)N(c3ccccc3)N(c3ccccc3)C2=O)cc1` the melting point was 184 to 185 °C. `CC(=C1SC(=O)NC1=O)c1ccc(OCCOc2c(-c3ccc(F)cc3)n(C)c3cc(F)ccc3c2=O)cc1` gave a melting point of 276 to 278 °C. In the case of `COc1cc2c(c(Br)c1OC(C)=O)Sc1cc(F)ccc1N2`, the melting point is reported as 224 to 226 °C. In the case of `O=C(CCCC1CCCCC1)N1C(=O)OC[C@@H]1Cc1ccccc1`, the melting point is reported as 69 to 70 °C. Work on `CC(C)C[C@H](NC(=O)[C@H](Cc1c[nH]cn1)NC(=O)[C@H](Cc1cccc2ccccc12)NC(=O)OCc1ccccc1)[C@@H](O)CC(N)=O` yielded a melting point of 158 to 161 °C. With `CC1(C(O)=Nc2cc(Cl)cc(Cl)c2)CCC1C(=O)O` (stereo not given) the melting point was 110 to 111 °C. `NC(=NO)c1ccc(Cn2ccc(OCc3ccccc3)c(Br)c2=O)cc1` showed a melting point of 210 to 212 °C. With `CC(C)c1c(C=O)c(-c2ccccc2)c2c3ccccc3ccn12` the melting point was 134 to 136 °C. `COC(CC[C@](C)(O)[C@@H](/C=C\C=C\c1ccccc1)Sc1ccccc1)OC` (racemic) gave a melting point of 59.5 to 61 °C. In the case of `O=C(N[C@H]1CC[C@H](CCN2CCC(c3cccc4c3CCO4)CC2)CC1)c1ccc(-n2cccc2)cc1`, the melting point is reported as 228 °C. Work on `Cc1ccc(CS(=O)c2nc3cc4c(cc3[nH]2)OC(F)C(F)(F)O4)nc1` (stereo not given) yielded a melting point of 186 to 187 °C. Molecule `CC1SC(=O)NN=C1c1cccc([N+](=O)[O-])c1` (stereo not given) has a melting point of 169 to 172 °C. Molecule `COc1cc(CBr)ccc1[N+](=O)[O-]` has a melting point of 98 °C. Molecule `Cc1cc(C(=O)C(C#N)C(=O)Nc2ccc(F)cc2)c(C)n1C` (stereo not given) has a melting point of 171 to 172 °C. With `N#CCN(CP(=O)(Oc1ccccc1)Oc1ccccc1)N=O` the melting point was 76 to 78 °C. Work on `O=C(C(=O)C12CC3CC(CC(C3)C1)C2)c1ccc(OC(F)F)cc1` yielded a melting point of 118 to 120 °C. `c1ccc(Cn2c(N3CCCCC3)nc3ccccc32)cc1` showed a melting point of 84 to 87 °C. In the case of `CC(C)c1nc(CCOC2=CCCCCCCCC2)n(C)c1Sc1cc(Cl)cc(Cl)c1`, the melting point is reported as 94 to 96 °C. `CC(C)(CNC(=O)CN1CCCC1=O)N1CCCCC1` showed a melting point of 69 °C. For `COc1cc2c(cc1OC)CCCC(C(=O)N1CCNCC1)=C2`, the melting point was 137 to 138 °C. Molecule `Cn1cc(-c2ccc(Cl)cc2)c(=S)c(-c2cccc(C(F)(F)F)c2)c1` has a melting point of 239 to 242 °C. `O=C(O)c1cn(C2CC2)c2nc(N3CCC(c4ccccn4)C3)c(F)cc2c1=O` (stereo not given) gave a melting point of 203 to 204 °C. `Oc1ccc2c(c1)CCCC(c1ccccc1)=C2c1ccc(OCCCCCCSCc2ccccn2)cc1` gave a melting point of 127 °C. Molecule `N#CCCNC(=O)c1cccc(-c2cccc3nc(C(O)c4cccc(C(F)(F)F)c4)cn23)c1` (stereo not given) has a melting point of 223 to 224 °C. For `CNc1nc(NS(=O)(=O)c2ccc(N)cc2)cc(N2CCCC2)n1`, the melting point was greater than 300 °C. Molecule `CC(C)n1nc(OCc2ccc3ccccc3n2)cc1CO` has a melting point of 137 to 138 °C. For `NS(=O)(=O)c1cc(Cl)cc(Cl)c1O`, the melting point was greater than 225 °C. `Cc1cccc(Cl)c1-n1[nH]c(C(C)C)c2c(=O)nc(Cc3ccc(N)cc3)nc1-2` showed a melting point of 206 to 207 °C. Molecule `O=Cc1c(Cl)ncnc1Cl` has a melting point of 65 to 66 °C. `CC(C)[Si](Oc1ccc2c(c1)OCC(N1CCC(O)(c3ccccc3)CC1)C2=O)(C(C)C)C(C)C` (stereo not given) showed a melting point of 132 °C. Molecule `COc1ccc(-c2ccc(=O)n(Cc3ccc(Cl)cc3F)c2)cn1` has a melting point of 136 °C. For `N#CCN[C@H]1CCc2c(F)cc(F)cc2C1`, the melting point was 73 to 76 °C. Molecule `C[C@H](C#Cc1ccc(Cc2ccc3ccccc3c2)s1)N(O)C(N)=O` has a melting point of 134 to 135 °C. Molecule `COc1ccc(N)cc1NC(C)=O` has a melting point of 83 °C.
